Experimental findings from ChEMBL document CHEMBL2010717, “Design of oxobenzimidazoles and oxindoles as novel androgen receptor antagonists” (Bioorg Med Chem Lett, 2012) are described below.

pIC50: −log10 of the molar value. Converted amounts (≈) assume the structure as drawn.

In series [1] the target is T1, Androgen receptor (Homo sapiens) (UniProt P10275).
T1 sequence (whole entry): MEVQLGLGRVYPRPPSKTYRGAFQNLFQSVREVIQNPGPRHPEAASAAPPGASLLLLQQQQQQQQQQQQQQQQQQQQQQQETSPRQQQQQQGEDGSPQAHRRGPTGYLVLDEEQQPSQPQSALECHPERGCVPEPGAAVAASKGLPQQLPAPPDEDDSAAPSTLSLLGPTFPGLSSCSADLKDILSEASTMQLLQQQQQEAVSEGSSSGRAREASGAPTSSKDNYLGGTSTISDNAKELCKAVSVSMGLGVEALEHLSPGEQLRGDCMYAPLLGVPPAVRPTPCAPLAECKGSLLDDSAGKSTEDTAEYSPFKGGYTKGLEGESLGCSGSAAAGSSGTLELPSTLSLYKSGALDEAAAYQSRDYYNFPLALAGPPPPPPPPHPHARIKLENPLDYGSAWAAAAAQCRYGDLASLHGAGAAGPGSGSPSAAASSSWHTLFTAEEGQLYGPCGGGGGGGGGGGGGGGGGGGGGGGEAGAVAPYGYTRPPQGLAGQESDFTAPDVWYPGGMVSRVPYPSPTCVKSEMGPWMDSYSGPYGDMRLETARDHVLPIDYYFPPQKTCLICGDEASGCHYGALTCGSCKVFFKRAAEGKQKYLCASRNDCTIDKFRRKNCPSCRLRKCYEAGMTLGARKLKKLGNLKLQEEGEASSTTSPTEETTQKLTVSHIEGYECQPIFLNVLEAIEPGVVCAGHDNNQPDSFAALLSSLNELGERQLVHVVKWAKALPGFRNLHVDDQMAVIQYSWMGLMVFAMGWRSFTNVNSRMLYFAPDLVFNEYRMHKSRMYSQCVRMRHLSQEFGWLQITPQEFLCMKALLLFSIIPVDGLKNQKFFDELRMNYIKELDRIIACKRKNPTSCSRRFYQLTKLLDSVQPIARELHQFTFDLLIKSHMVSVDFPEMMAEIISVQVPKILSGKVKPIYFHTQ
The experiment in a line: Antagonist activity at androgen receptor in human LNAR cells expressing ARE-PSA-LUC at 1 uM by luminescence analysis in presence of R1881. It counts as functional, cell-based.

Series [2] deals with T1, Androgen receptor (Homo sapiens). The experiment in a line: Agonist activity at androgen receptor in human LNAR cells expressing ARE-PSA-LUC at 1 uM by luminescence analysis relative to RD-162. It counts as functional, cell-based.
A short description of series [3]: Aqueous solubility of the compound. It counts as physicochemical.
The next series deals with T2, Androgen receptor (Homo sapiens, UniProt P10275).
T2 sequence (P10275 whole entry): T1 sequence (whole entry)
The experiment in a line: Antagonist activity at androgen receptor in human LNAR cells expressing ARE-PSA-LUC by luminescence analysis in presence of R1881. It counts as functional, cell-based.

Series [4] is described as follows: Metabolic stability in human liver microsomes assessed as extraction ratio. It counts as ADME, Microsome. To be noted: read-out: ERH. (In general: Liver microsomes are a subcellular fraction often used to study metabolism.)

Regarding `N#Cc1ncc(-n2c(=O)n(Cc3ccccc3)c3ccccc32)cc1C(F)(F)F`, the inhibition in series [1] turned out to be 91%. In series [2], the fold change (FC) was 1.04. Besides, in series [3] (aqueous, read-out: solubility), the solubility turned out to be 5.3 µM (≈ 2.09 µg/mL).

Consider `CC1(C)C(=O)N(c2ccc(C#N)c(C(F)(F)F)c2)c2ccccc21`, for which the inhibition in series [1] amounted to 75.7%. Further, the fold change (FC) in series [2] came to 1.96.

As for `N#Cc1ncc(-n2c(=O)n(Cc3ccccc3)c3cccnc32)cc1C(F)(F)F`, in series [1], the inhibition amounted to 96.3%. For the same molecule, in series [2], the fold change (FC) was determined as 1.1. Further, in series [3] (aqueous, read-out: solubility), the solubility was found to be 1.7 µM (≈ 0.672 µg/mL).

For the molecule `N#Cc1ccc(-n2c(=O)n(Cc3ccccc3)c3cccnc32)cc1C(F)(F)F`, in series [2], the fold change (FC) was found to be 1.13. Also, the negative logarithm of the IC50 (pIC50) at Androgen receptor was 7.22. For the same molecule, the solubility in series [3] (aqueous, read-out: solubility) is under 0.5 µM.

As for `N#Cc1ccc(-n2c(=O)n(Cc3ccccc3)c3ccccc32)cc1C(F)(F)F`, the fold change (FC) in series [2] is 1.04. Moreover, on Androgen receptor, the negative-log IC50 (pIC50) was 6.77. Moreover, the solubility in series [3] (aqueous, read-out: solubility) is under 0.16 µM.

`CNC(=O)c1ccc(Cn2c(=O)n(-c3ccc(C#N)c(C(F)(F)F)c3)c3ccccc32)cc1F`: in series [1], the inhibition was determined as 72.5%. The fold change (FC) in series [2] came out at 1.08. Besides, in series [3] (aqueous, read-out: solubility), the solubility was 9.9 µM (≈ 4.64 µg/mL).

For `CNC(=O)c1ccc(-n2c(=O)n(-c3ccc(C#N)c(C(F)(F)F)c3)c3ccccc32)cc1F`, the inhibition in series [1] was determined as 28.7%. Moreover, the fold change (FC) in series [2] came out at 1.44. Besides, the solubility in series [3] (aqueous, read-out: solubility) worked out at 8.81 µM (≈ 4 µg/mL).

Regarding `N#Cc1ccc(-n2c(=O)n(Cc3ccccn3)c3ccccc32)cc1C(F)(F)F`, the fold change (FC) in series [2] came to 1.03. At Androgen receptor, the negative logarithm of the IC50 (pIC50) was 6.52. The solubility in series [3] (aqueous, read-out: solubility) was 12 µM (≈ 4.73 µg/mL).

`N#Cc1ccc(-n2c(=O)n(Cc3ccccc3)c3ncccc32)cc1C(F)(F)F`: the fold change (FC) in series [2] turned out to be 0.951. The pIC50 at Androgen receptor was 6.23.

Consider `CC(c1nc(-c2ccccn2)no1)n1c(=O)n(-c2ccc(C#N)c(Cl)c2)c2ccccc21` (single isomer, unassigned; (+)) [listing 1 of 2 here], for which the fold change (FC) in series [2] turned out to be 0.874.

Take `N#Cc1ccc(-n2c(=O)n(Cc3nc(-c4ccccn4)no3)c3ccccc32)cc1Cl`: in series [2], the fold change (FC) worked out at 0.941. Further, on Androgen receptor, the negative logarithm of the IC50 (pIC50) was 6.90. The solubility in series [3] (aqueous, read-out: solubility) was 5.9 µM (≈ 2.53 µg/mL).

On to `CC(c1ccccc1)n1c(=O)n(-c2ccc(C#N)c(C(F)(F)F)c2)c2ccccc21` (single isomer, unassigned; (+)) [listing 1 of 2 here], for which the negative-log IC50 (pIC50) on Androgen receptor is 6.53. Also, in series [3] (buffer), the solubility worked out at 4.41 µM (≈ 1.8 µg/mL).

With `CC(c1nc(-c2ccccn2)no1)n1c(=O)n(-c2ccc(C#N)c(Cl)c2)c2ccccc21` (single isomer, unassigned; (+)) [listing 2 of 2 here], the negative-log IC50 (pIC50) on Androgen receptor is 6.75. In series [3] (aqueous, read-out: solubility), the solubility worked out at 9.45 µM (≈ 4.19 µg/mL).

On to `CCn1c(=O)n(-c2ccc(C#N)c(C(F)(F)F)c2)c2ccccc21`, for which the fold change (FC) in series [2] was found to be 1.08. Moreover, the pIC50 at Androgen receptor is 6.53. The solubility in series [3] (aqueous, read-out: solubility) was determined as 3.47 µM (≈ 1.15 µg/mL).

Turning to `CC(c1ccccc1)n1c(=O)n(-c2ccc(C#N)c(C(F)(F)F)c2)c2ccccc21` (stereo in doubt; (-)-20) [listing 1 of 2 here], in series [2], the fold change (FC) stood at 0.833.

Turning to `CC(c1ccccc1)n1c(=O)n(-c2ccc(C#N)c(C(F)(F)F)c2)c2ccccc21` (stereo in doubt; (-)-20) [listing 2 of 2 here], the negative logarithm of the IC50 (pIC50) at Androgen receptor is 6.44. Moreover, the solubility in series [3] (aqueous, read-out: solubility) was found to be 5.58 µM (≈ 2.27 µg/mL).

Consider `CNC(=O)c1ccc(-c2ccc3c(c2)C(C)(C)C(=O)N3c2ccc(C#N)c(OC)c2)cc1F`, for which, in series [2], the fold change (FC) was determined as 0.884. For the same molecule, the hepatic extraction ratio in series [4] is under 0.25. On Androgen receptor, the pIC50 is 6.78. In addition, the solubility in series [3] (aqueous, read-out: solubility) was 9.7 µM (≈ 4.3 µg/mL).

Take `CC(c1ccccc1)n1c(=O)n(-c2ccc(C#N)c(C(F)(F)F)c2)c2ccccc21` (single isomer, unassigned; (+)) [listing 2 of 2 here]: the fold change (FC) in series [2] stood at 0.904.

On to `CC(c1nc(-c2ccccn2)no1)n1c(=O)n(-c2ccc(C#N)c(Cl)c2)c2ccccc21` (stereo in doubt; (-)-23) [listing 1 of 2 here], for which, in series [2], the fold change (FC) turned out to be 0.945.

Turning to `CC(C)n1c(=O)n(-c2ccc(C#N)c(C(F)(F)F)c2)c2ccccc21`, in series [2], the fold change (FC) worked out at 0.965. Moreover, the pIC50 on Androgen receptor was 6.43. In addition, in series [3] (aqueous, read-out: solubility), the solubility came to 9.3 µM (≈ 3.21 µg/mL).

For `N#CCn1c(=O)n(-c2ccc(C#N)c(C(F)(F)F)c2)c2ccccc21`, the inhibition in series [1] amounted to 94.8%. Further, the fold change (FC) in series [2] came to 1.42. Also, the solubility in series [3] (aqueous, read-out: solubility) turned out to be 18.9 µM (≈ 6.47 µg/mL).

Consider `CNC(=O)c1ccc(-c2ccc3c(c2)C(C)(C)C(=O)N3c2ccc(C#N)c(C(F)(F)F)c2)cc1F`, for which the fold change (FC) in series [2] amounted to 0.941. Besides, in series [4], the hepatic extraction ratio was 0.4. The negative logarithm of the IC50 (pIC50) at Androgen receptor is 6.71. In series [3] (aqueous, read-out: solubility), the solubility was found to be 6.25 µM (≈ 3.01 µg/mL).

Take `Cc1ccc(-n2c(=O)n(-c3ccc(C#N)c(C(F)(F)F)c3)c3ccccc32)cc1`: in series [1], the inhibition was 12.6%. For the same molecule, in series [2], the fold change (FC) was found to be 0.88. In series [3] (aqueous, read-out: solubility), the solubility is 0.79 µM (≈ 0.311 µg/mL).

As to `N#Cc1ccc(-n2c(=O)[nH]c3ccccc32)cc1C(F)(F)F`, in series [1], the inhibition was determined as 60.1%. For the same molecule, the fold change (FC) in series [2] is 6.2. Further, in series [3] (aqueous, read-out: solubility), the solubility is 7.9 µM (≈ 2.4 µg/mL).

Turning to `CC(c1nc(-c2ccccn2)no1)n1c(=O)n(-c2ccc(C#N)c(Cl)c2)c2ccccc21` (stereo in doubt; (-)-23) [listing 2 of 2 here], the pIC50 at Androgen receptor was 6.72.

Turning to `COc1cc(N2C(=O)C(C)(C)c3cc(-c4cccnc4OC)ccc32)ccc1C#N`, the fold change (FC) in series [2] was found to be 1.04. Further, on Androgen receptor, the pIC50 was 7.10. Also, in series [3] (aqueous, read-out: solubility), the solubility is 9.8 µM (≈ 3.91 µg/mL).

Regarding `N#Cc1ccc(-n2c(=O)n(Cc3cccnc3)c3ccccc32)cc1C(F)(F)F`, the fold change (FC) in series [2] was determined as 0.984. Besides, the negative-log IC50 (pIC50) on Androgen receptor was 6.41. The solubility in series [3] (aqueous, read-out: solubility) is 2.5 µM (≈ 0.986 µg/mL).

Broadly, the inhibition is the drop in the measured response relative to a control, in per cent. Usually solubility stands for the concentration that dissolves in the medium under given conditions. One may read the pIC50 as the negative decadic logarithm of the IC50, by convention in mol/L.
